Literature values, collected in patent EP3342399B1, “PHARMACEUTICAL COMPOSITIONS COMPRISING POSACONAZOLE AND MANUFACTURING METHOD” (Abdi Ibrahim Ilac Sanayi ve Ticaret A.S., priority 2016, dated 2018).
Read-outs that look alike come from different tables or passages of the source.

permeability (BCS Class II): high
solubility (BCS Class II): low
solubility (at low pH): high
Structure (SMILES): CC[C@@H]([C@H](C)O)n1ncn(-c2ccc(N3CCN(c4ccc(OC[C@@H]5CO[C@@](Cn6cncn6)(c6ccc(F)cc6F)C5)cc4)CC3)cc2)c1=O [Posaconazole, 1-[(1S,2S)-1-Ethyl-2-hydroxypropyl]-4-{4-[4-(4-{2-[(2S,4R)-(1,2,4-triazol-1-ylmetyl)-2-(2,4-difluorophenyl)-oxolan-4-ylmetyl]phenyl}piperazin-1-yl)phenyl]}-2,3-dihydro-1,2,4-triazol-3-one]
